Series [1] deals with S. aureus ATCC 25923. Put plainly: broth microdilution antimicrobial activity, S. aureus reference strain. It counts as cell-based, Staphylococcus aureus. Particulars: for activity at 100 µM / IC50: Staphylococcus aureus; for activity at 100 µM: ATCC25923, 100 μM, growth relative to positive control, mean ± SD, read-out: Microbial growth, S. aureus; for IC50: ATCC25923, S. aureus ATCC 25923, mean [95% confidence interval]. How it is done: (§1) Reference bacterial strains of Staphylococcus aureus (ATCC 25923), Escherichia coli (ATCC 25922), and Candida albicans (ATCC 10231) were used in this study as Gram-positive, Gram-negative, and fungal models, respectively. These reference strains were purchased from the American Type Culture Collection (ATCC, Manassas, VA, USA); bacterial cultures were routinely grown at 37 °C on 5% blood agar plate, while fungal cultures on Sabouraud Dextrose Agar (Biolife Italiana S.r.l., Milan, Italy).
(§2) The dry powder of the isatin derivatives was resuspended in dimethylsulfoxide (DMSO) at 20 mM and used as stock solutions. For biological investigations, compounds were used in the range 100–0.78 µM, and the solvent in the corresponding percentage range.
(§3) The antimicrobial activity of the compounds was assessed by a well-established broth microdilution procedure in microtiter plates and in compliance with the Clinical and laboratory Standard Institute (CLSI) guidelines (Clinical and Laboratory Standards Institute, Wayne, PA, USA). In short, microbial inocula were prepared at 0.5 McFarland in PBS and, subsequently, bacterial suspensions were diluted 1:200 in Mueller–Hinton broth (Sigma-Aldrich, St. Louis, MO, USA), while fungal inoculum was diluted 1:20 in RPMI-1640 medium (Gibco®, ThermoFisher Scientific Inc., Waltham, MA, USA), containing 2% glucose and 0.3% levo-glutamine buffered to pH 7.0 with 0.165 M 3-(N-morpholino)propanesulfonic acid (MOPS). A total of 100 µL of these microbial suspensions were introduced in a 96-well microplate and incubated with 100 µL of the compounds, two-fold serially diluted in the range of 100–0.19 µM. Positive controls (microbial suspensions in regular media), negative controls (only compounds), and solvent controls (microbial suspensions incubated with DMSO dilutions) were included in the tests. The plate was incubated at 37 °C for 24 h, and subsequently, the optical density at 630 nm (OD630nm) was spectrophotometrically measured. Each experiment was carried out with three technical replicates (i.e., three wells per sample) and repeated at least two times for statistical power. […] IC50 values, corresponding to the concentration of the compound giving rise to an inhibition of growth of 50%, were obtained by interpolation on dose–response curves generated by plotting the percentages of growth inhibition, relative to the positive control (set to 100% of growth), as a function of the tested concentrations (on a logarithm scale). Statistical analysis was carried out using GraphPad Prism version 9.4.1 for Windows (GraphPad Software, San Diego, CA, USA, www.graphpad.com).
(In general: Broth dilution looks for growth in wells or tubes with falling amounts of substance.)

Series [2] relates to E. coli ATCC 25922. Put plainly: broth microdilution antimicrobial activity, E. coli reference strain. It counts as cell-based, Escherichia coli. The note with it: Escherichia coli, ATCC25922; 100 μM; growth relative to positive control; mean ± SD; read-out: Microbial growth, E. coli. How it is done:
as §1, §2, §3

The test system of series [3] is C. albicans ATCC 10231. Put plainly: broth microdilution antimicrobial activity, C. albicans reference strain. It counts as cell-based, Candida albicans. The note with it: Candida albicans, ATCC10231; 100 μM; growth relative to positive control; mean ± SD; read-out: Microbial growth, C. albicans. The protocol: as §1, §2, §3
The nature of series [4]: cell viability and proliferation assay (WST8/CCK-8). In kind it is cell-based. Particulars: African green monkey, Vero cells (ATCC CCL-81); Vero cells; mean [95% confidence interval]. The protocol: (§4) Vero cell line (ATCC CCL-81) was selected as the model system to assess the effect of the isatin hybrids on normal epithelial cells, and a previously established protocol was used with minor modifications. Briefly, cells were cultured in RPMI-1640 medium supplemented with 10% fetal bovine serum (FBS) (Carlo Erba Reagents, Milan, Italy), 100 U/mL penicillin, and 100 µg/mL streptomycin at 37 °C with 5% CO2. For experiments, cells were seeded into 96-well plates at 10^4 cells/well, and incubated at 37 °C for 24 h. Following washes with PBS, the cell monolayer was incubated with 100 µL of medium containing the 2-fold serial dilutions of the compounds. Both untreated cells and cells incubated with medium containing solvent dilutions were included in each experiment as controls. The cell viability was assessed by a WST8-based assay according to the manufacturer’s instructions (CCK-8, Cell Counting Kit-8, Dojindo Molecular Technologies, Rockville, MD, USA). After 48 h of incubation, culture medium was removed from each well, the monolayer was washed with PBS, and 100 µL of fresh medium containing 10 µL of CCK-8 solution were added. After 2 h at 37 °C, the OD450nm was read, and data were expressed as the percentage of the cell viability relative to the untreated controls. The CC50 was obtained from the corresponding dose–response curves generated, as previously reported for IC50 values.
Background: Tetrazolium assays rely on reduction of a dye to a coloured formazan, in cell work by metabolically active cells.

The subject of series [5] is Vero cell line (ATCC CCL-81). Described as above. It counts as cell-based. The note with it: Chlorocebus sabaeus, Vero, 48 h; 100 μM; viability relative to untreated controls; mean ± SD; read-out: Cell proliferation, Vero. The protocol: as §4
Series [6] concerns S. aureus ATCC 25923. Also noted: method as in PMID 36144518. The note with it: cited from earlier work.
Series [7] relates to E. coli ATCC 25922. Also on record: method as in PMID 36144518. The note with it: 100 μM; mean ± SD; cited from earlier work.
The test system of series [8] is C. albicans ATCC 10231. Also on record: method as in PMID 36144518. Particulars: 100 μM; mean ± SD; cited from earlier work.
Series [9] deals with Vero cell line (ATCC CCL-81). Also noted: method as in PMID 36144518. The note with it: 100 μM; mean ± SD; cited from earlier work.

Where two headings read alike, the source gives them in different places.

In the case of `O=C1Nc2ccc(F)cc2C1(c1c(Cl)nc2sccn12)c1c(Cl)nc2sccn12` [Compound 5, 3,3-bis(6-Chloroimidazo[2,1-b]thiazol-5-yl)-5-fluoroindolin-2-one], in the series on S. aureus ATCC 25923 [1] (CC50 Vero / IC50 S. aureus), the “SI (selectivity index, CC50/IC50)” value is 1.5. Further, the figures for the activity at 100 µM in the series with S. aureus ATCC 25923 [1], in the series on E. coli ATCC 25922 [2] and in the series on C. albicans ATCC 10231 [3] were below 30%, 98.9 ± 1.4% and 102 ± 1.5%, respectively. For the same compound, in the series with S. aureus ATCC 25923 [1], half-maximal inhibition (IC50) was put at 75.6 µM. In addition, the CC50 (in general, the concentration giving 50% cytotoxicity) at 48 h in series [4] stood at 116 µM. Also, the viability at 100 µM in series [5] came out at 43.5 ± 3.3%.

In the case of `COc1ccc2c(c1)C(c1c(Cl)nc3sccn13)(c1c(Cl)nc3sccn13)C(=O)N2` [Compound 6k], the “Microbial growth, S. aureus” value in the series on S. aureus ATCC 25923 [6] (100 μM, mean ± SD) is 43.4 ± 5.6%. Further, in the series with S. aureus ATCC 25923 [6] (S. aureus, lead compounds), the IC50 (in general, the point on the concentration scale where inhibition reaches its midpoint) was 80 µM. Further, in the series on E. coli ATCC 25922 [7], the “Microbial growth, E. coli” value was 102.7 ± 2.4%. Besides, in the series with C. albicans ATCC 10231 [8], the “Microbial growth, C. albicans” value is given as 104.1 ± 1.9%. In addition, the “Cell proliferation, Vero” value in series [9] is 70.9 ± 5.6%.

Take `O=C1N(CC=Cc2ccccc2)c2ccccc2C1(c1c(Cl)nc2sccn12)c1c(Cl)nc2sccn12` [Compound 15, 3,3-bis(6-Chloroimidazo[2,1-b]thiazol-5-yl)-1-cinnamylindolin-2-one]: the activity at 100 µM is below 30% in the series on S. aureus ATCC 25923 [1], 69.5 ± 1.8% in the series on E. coli ATCC 25922 [2] and 60.7 ± 1.7% with C. albicans ATCC 10231 [3]. The compound also registered an IC50 in the series with S. aureus ATCC 25923 [1] of 90.1 µM. In series [4], this compound registered a CC50 at 48 h above 100 µM. In [5], the viability at 100 µM was found to be 101 ± 1.5%.

The values are drawn from PMC11505029, “Isatin Bis-Imidathiazole Hybrids Identified as FtsZ Inhibitors with On-Target Activity Against Staphylococcus aureus” (Antibiotics, 2024).
